A short description of this data set: gradient 5% acetonitrile 3 min, to 50% in 2 min, to 85% in 15 min, held 3 min, 100 µL/min. As to conditions: column: Zorbax Extend-C18 2.1 x 50 mm; eluents: water / acetonitrile, 0.1% formic acid. In a few lines: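 Pure standards were analyzed in mixtures of ~100 molecules using HPLC coupled to a quadrupole time-of-flight mass spectrometer, in both positive and negative ionization mode. Separation used a Zorbax Extend-C18 column (2.1 × 50 mm, 1.8 μm) at 100 μL/min, with water and acetonitrile each containing 0.1% formic acid. Dead and dwell volumes were 40 μL and 900 μL, and data were collected over 3 months. Retention time was read from computationally picked adduct peaks, each inspected manually.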
Molecule `CC1(C)CC2(CCO1)OC(=O)CC2C(=O)Nc1ccccc1Cl` (configuration not stated) yielded an RP-LC retention time of 753 s. The molecule `CCCn1cnc2ccc(-c3noc(CNS(=O)(=O)c4ccccc4)n3)cc21` had an RP-LC retention time of 682 s. `CCCCc1ccc(NC(=O)N2CCc3nc[nH]c3C2)cc1` had an RP-LC retention time of 675 s. To `CN1C(=O)c2cc(C(=O)Nc3ccccc3Cl)nn2CC1(C)C(=O)NC1CCCCC1` (configuration not stated) belongs 887 s.

`O=C(c1ccsc1)N1CCN(c2cc(-c3ccccc3)[nH]n2)CC1` gave an RP-LC retention time of 730 s. The molecule `CNC(=O)c1cnn(-c2ccc(-c3nc(C(C)C)no3)cn2)c1C` yielded an RP-LC retention time of 780 s. `CCc1ccc(NC(=O)Cn2nc3cc(C)nc(N4CCCC4)n3c2=O)cc1`: the RP-LC retention time was 968 s. In turn, `COc1ccc(N2CCN(c3cc(SCC(=O)Nc4ccc(C#N)cc4)ncn3)CC2)cc1` displayed an RP-LC retention time of 890 s. The result for `CCc1ccc(NC(=O)N2CCC(n3cnc4ccc(C)cc4c3=O)CC2)cc1` reads 838 s; that for `CCN1CCN(CCNC(=O)c2cc(=O)n3c(nc4ccccc43)s2)CC1`, 604 s; that for `NC(=O)[C@H](Cc1ccccc1)NC(=O)[C@H](Cc1c[nH]c2ccccc12)NC(=O)[C@@H]1CCCN1C(=O)[C@@H](N)Cc1ccc(O)cc1`, 680 s.

Turning to `c1ccc(-c2nnc(-c3ccncc3)o2)cc1`, the RP-LC retention time was determined as 715 s. `Cc1noc(C)c1S(=O)(=O)N1CCC2(CC1)N(c1ccccc1)C(=O)CS2=O` (configuration not stated) yielded an RP-LC retention time of 708 s. With `CN(C)c1ccc(-c2nc3cnccn3c2Nc2ccccc2)cc1`, the RP-LC retention time worked out at 745 s. To `CCN1C[C@]2(OC(=O)c3ccccc3NC(C)=O)CCC(OC)[C@@]34C5C[C@@H]6C(OC)C[C@](O)([C@@H](CC23)[C@@H]14)C5(O)[C@H]6OC` (some centres not stated) belongs 760 s; to `Cc1ccc(-c2csc(Cc3nc(-c4ccc5c(c4)OCO5)no3)n2)cc1C`, 1280 s. As for `O=C(CN1C(=O)CCCc2cc(S(=O)(=O)N3CCCC3)ccc21)NC1CCCCCCC1`, the RP-LC retention time was 915 s. `CCC(C)n1c(=O)c2ccccc2n(Cc2nc(-c3ccc(C)cc3)no2)c1=O` (configuration not stated) displayed an RP-LC retention time of 1240 s.

`Cc1cccc(NC(=O)Cc2c(C)n(C)c3nc(-c4ccccc4)nn3c2=O)c1` had an RP-LC retention time of 824 s.

The molecule `CCOC(=O)c1ccccc1NC(=O)NCCn1c(C(F)(F)F)nc2cccnc21` yielded an RP-LC retention time of 917 s. Take `Cc1nn(CC(=O)NC2CCCC2)c(=O)c2cc(-c3ccccc3)nn12`: the RP-LC retention time stood at 852 s.

For the molecule `O=C(Nc1nc2c(s1)CN(C(=O)Cn1c(=O)oc3ccccc31)CC2)C1CCCO1` (configuration not stated), the RP-LC retention time was determined as 665 s. The molecule `Cc1oc(-c2[nH]ncc2C(=O)N2CCCC2)cc1S(=O)(=O)N1CCN(C)CC1` returned an RP-LC retention time of 574 s.

`CCCNC(=O)CCc1nc2ccccc2n(CC(=O)Nc2c(C)cccc2CC)c1=O` showed an RP-LC retention time of 810 s. To `COc1ccc(-c2cc(N3CCN(C(=O)c4ccc5[nH]ccc5c4)CC3)n[nH]2)cc1` belongs 703 s.

For the molecule `O=C(NCC1CCCO1)c1ccc(CN2CCN(Cc3ccccc3)C(=O)C2=O)cc1` (configuration not stated), the RP-LC retention time is 669 s.

Regarding `Cc1ccc(C(=O)NCCCN2CCCC2)cc1NC(=O)C1=CSCCO1`, the RP-LC retention time amounted to 596 s.

`O=C(NCCCOc1cccc2cccnc12)c1ccc(F)cc1Cl` registered an RP-LC retention time of 580 s. As to `CC1Cc2ccccc2N1C(=O)C12CCC(C)(C(=O)O1)C2(C)C` (configuration not stated), the RP-LC retention time turned out to be 1000 s. The molecule `CCOC(=O)c1noc2ncnc(N(C)c3cccc(Cl)c3)c12` showed an RP-LC retention time of 965 s.

Take `Cc1cccc(NS(=O)(=O)c2cc3n(c2)CCCN(C)C3=O)c1`: the RP-LC retention time was 695 s.

The molecule `CCCNC(=O)C1=Cc2cc(Cl)cc(OC)c2OC=C1` gave an RP-LC retention time of 977 s.

Source of the values: the METLIN SMRT retention time set (Domingo-Almenara et al. 2019).
